Data on 3 compounds can be found in patent US20090028820A1, “Antiviral Agent” (MITSUBISHI TANABE PHARMA CORPORATION, priority 2005, published 2009).

One data set has as its system Hepatitis C virus. The conditions noted are these: cited from earlier work.
The next data set concerns HCV-subgenomic replicon. The conditions noted are these: Huh7 cells; cited from earlier work.
Data set [1] relates to HCV-replicon cell clone #5-15 derived from Huh7. Description: Growth of HCV-replicon cell strain (Cell Titer 96 Aqueous One Solution Cell Proliferation Assay, absorbance 490 nm). Type of data set: cell-based, human. The settings on record: HGF 0, 10, 100 ng/ml; IFNα 0, 0.1, 0.3 IU/ml; 48 hours. The method, then: To determine whether or not the decreases in the replication of HCV-replicons observed in Example 1 were attributable to the decrease in the cell count itself, the following experiment was performed.
The clone #5-15 was suspended in Dulbecco's Eagle's MEM medium containing 2% fetal bovine serum, and seeded on a 96-well plate at 1.5×10^4 cells/100 μl/well. As blank, wells added with a medium alone was prepared without seeding cells (Day 0). After culture overnight in a humid incubator at 37° C. under 5% CO2 gas, 50 μl each of human recombinant IFNα (BIOMEDICAL LABORATORIES, Cat. No. 11105-1, lot No. #2122) and/or human recombinant HGF (produced in-house, Lot No. 920629) was added to each well. The final concentrations of IFNα were 0, 0.1 and 0.3 international unit (IU)/ml, the final concentrations of HGF were 0, 10 and 100 ng/ml, and the final volume was adjusted to 200 μl for all the wells. Three wells (triplicate) were prepared for each sample (Day 1). After culture for 48 hours, the number of cells was measured by Cell Titer 96 Aqueous One Solution Cell Proliferation Assay (Promega, Lot #171755), which is a type of cell growth assay kit. The measurement was performed according to the manual of the assay kit. […] Then, the plate was incubated for one hour in a humid incubator containing 5% CO2 set at 37° C., and then measured at absorbance 490 nm by using a 96-well plate reader.
(In general: In antiviral work, replicon cells carry a viral genome segment that copies itself.)

For another data set, the system named is HCV-replicon. Description: Inhibition of HCV-replicon replication in HCV-replicon cells (quantitative PCR of replicon RNA). Type of data set: cell-based, Hepatitis C virus. The settings on record: for inhibition of replication of the HCV-replicon: HGF alone, clone #5-15, 48 hours. The method, then:
As a cell system for in vitro replication of HCV, an HCV-replicon cell clone #5-15 derived from the human liver cancer cell strain Huh7 was used (purchased from ReBLikon GmbH). The clone #5-15 was suspended in the Dulbecco's Eagle's MEM medium containing 2% fetal bovine serum, and seeded on a 96-well plate at 1.5×10^4 cells/100 μl/well. As blank, wells added with the medium alone was prepared without seeding the cells (Day 0). After culture overnight in a humid incubator at 37° C. under 5% CO2 gas, 50 μl each of human recombinant IFNα (BIOMEDICAL LABORATORIES, Cat. No. 11105-1, lot No. #2122) and/or human recombinant HGF (produced in-house, Lot No. 920629) was added to each well. The final concentrations of IFNα were 0, 0.1 and 0.3 international unit (IU)/ml, the final concentrations of HGF were 0, 10 and 100 ng/ml, and the final volume was adjusted to 200 μl for all the wells. Three wells (triplicate) were prepared for each sample (Day 1). After culture for 48 hours, total RNA was extracted from each well by using ABI-PRIZM 6100 Nucleic Acid PrepStation (Applied Biosystems). Extraction was performed according to the operation manual of the apparatus. The solution of the extracted RNA was stored at −80° C. (Day 3). The samples were thawed on the next day, and amounts of the HCV-replicon RNA were quantified by quantitative polymerase chain reaction (PCR). The quantification was performed according to the method of Takeuchi et al. (Takeuchi, T. et al., Gastroenterology, Vol. 116, 636-642 (1999)) by using ABI PRISM 7900 (Applied Biosystems).
RNAs used in the quantitative PCR for a standard curve were prepared by in vitro transcription using a vector obtained by ligating the gene of the HCV MKC-1A strain (Genbank accession No. D45172) to the downstream of the T7 promoter using T7 RiboMAX Express Large Scale RNA Production System (Promega), and it was confirmed that linearity was obtainable between 10^2 and 10^8 in the aforementioned quantitative PCR.

Regarding `COc1ccc2c(O[C@@H]3C[C@H]4C(=O)N[C@]5(C(=O)O)C[C@H]5/C=C\CCCCC[C@H](NC(=O)OC5CCCC5)C(=O)N4C3)cc(-c3csc(NC(C)C)n3)nc2c1` [BILN-2061], the improvement of viremia entry in the data set on Hepatitis C virus (patients with hepatitis C) is listed as “confirmed to improve viremia”. For the same compound, the “inhibition of replication of replicon RNA” value in the data set on HCV-subgenomic replicon is “inhibits replication of replicon RNA”.
Regarding “HGF: human recombinant HGF (produced in-house, Lot No. 920629); hepatocyte growth factor”, the “inhibition of growth of the HCV-replicon cell line” value in data set [1] is given as “not observed to inhibit the growth”. For the same compound, in the data set on HCV-replicon (HGF 10 ng/ml combined with IFN), the “effect of HGF on IFN-dependent inhibition of virus replication” value is listed as “synergistically enhanced”. In addition, the “inhibition of replication of the HCV-replicon” value in the data set on HCV-replicon (10 ng/ml) is “almost no inhibition of the replication was observed”; in the data set on HCV-replicon (100 ng/ml), “inhibited the replication of the HCV-replicon”. Further, the results for the “effect of HGF on inhibition of HCV-replicon replication by IFN” value with HCV-replicon (HGF combined with IFN 0.1 IU/ml) and with HCV-replicon (HGF combined with IFN 0.3 IU/ml) were “synergistically acted to inhibit the replication of HCV-replicons” and “effect of HGF was not observed”, respectively.
As for `NC(=O)c1ncn([C@@H]2O[C@H](CO)[C@@H](O)[C@H]2O)n1` [Ribavirin, ribavirin], the “efficacy against HCV” value with Hepatitis C virus (agent alone) is “ineffective”.
